pIC50: −log10 of the molar value. A value given as a limit tells only on which side of the number the result lay.

This is an account of results in patent publication US11834440B2, “Beta-lactam derivatives for the treatment of diseases” (Insilico Medicine IP Limited, priority 2021, dated 2023).

The test deals with QPCTL (Homo sapiens (Human), UniProt Q9NXS2). Put plainly: QPCTL inhibition, SensoLyte Green Glutaminyl Cyclase Activity Assay. In kind it is biochemical. To be noted: 0.8 nM 2x enzyme solution, 45 min at 37° C., 50 mM Tris pH 8.0, 1% DMSO. The method, then: Preparation of working solution: 2×Glutaminyl Cyclase substrate was diluted in assay buffer to […]. 2×enzyme solution and QPCTL was diluted in assay buffer to 0.8 nM. Glutaminyl Cyclase Developer was diluted in assay buffer to 1×(containing 10 mM 1-Benzyl-Imidazole). Serial dilution of test compounds was performed in DMSO. The final DMSO concentration in 100 μl reaction was 1%. The assay buffer was 50 mM Tris, pH 8.0, 0.01% BSA.
Chain of QPCTL (Q9NXS2 whole entry, species assumed): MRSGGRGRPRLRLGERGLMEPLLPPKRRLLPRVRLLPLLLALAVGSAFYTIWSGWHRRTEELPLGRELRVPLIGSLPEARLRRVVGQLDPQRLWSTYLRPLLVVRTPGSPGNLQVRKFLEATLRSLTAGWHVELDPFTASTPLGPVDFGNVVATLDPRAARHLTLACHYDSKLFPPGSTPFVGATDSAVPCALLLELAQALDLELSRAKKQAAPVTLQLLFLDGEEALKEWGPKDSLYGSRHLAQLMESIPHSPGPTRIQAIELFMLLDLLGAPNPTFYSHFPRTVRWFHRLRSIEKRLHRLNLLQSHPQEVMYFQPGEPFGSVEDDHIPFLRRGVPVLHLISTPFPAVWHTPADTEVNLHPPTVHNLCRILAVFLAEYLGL
Procedure: 50 μL of 2×Glutaminyl Cyclase substrate solution was added into the assay plate followed by 50 μL of 2×enzyme solution. The plate was centrifuged for 1 min at 1000 rmp. Next the plate was incubated for 45 minutes at 37° C. This was followed by the additional of 50 μL of the prepared Glutaminyl Cyclase developer and incubated for additional 30 min at 37° C. Results were read on SpectraMax Paradigm detecting with emission at Ex/Em=490 nm/520 nm.
A Z′ value was calculated for each assay plate. The Z′ value must be >0.5 or the plate was disqualified. […] Results were calculated using GraphPad Prism 7 software is used for IC50 determination.
For the compound `Cc1nc(-c2ccc(C(F)(F)F)nn2)ccc1[C@@H]1[C@H](C2CC2)C(=O)N1c1ccc2[nH]cnc2c1` (single isomer, unassigned) [Compound 70A], the pIC50 (as a rule, −log10 of the IC50, conventionally taken in molar units) is 6.00 to 7.60. With `Cc1nc(-c2cnn(C(F)(F)F)c2)ccc1[C@@H]1[C@H](C2CC2)C(=O)N1c1ccc2[nH]cnc2c1` (single isomer, unassigned) [Compound 68A] the figure was 6.00 to 7.60; with `C[C@@H]1C(=O)N(c2ccc3[nH]cnc3c2)[C@H]1c1c(F)cc(OCCC(F)F)cc1F` (single isomer, unassigned) [Compound 7A], 6.00 to 7.60. With `O=C1[C@@H](C2CC2)[C@@H](c2c(F)cc(-c3cnn(C(F)(F)F)c3)cc2F)N1c1ccc2[nH]cnc2c1` (single isomer, unassigned) [Compound 35A] the figure was 6.00 to 7.60; with `O=C1[C@@H](C2CC2)[C@@H](c2ccc(-c3cnn(C(F)(F)F)c3)cc2)N1c1ccc2[nH]cnc2c1` (single isomer, unassigned) [Compound 55A], 6.00 to 7.60.

Compound `O=C1[C@@H](C2CC2)[C@@H](c2ccc(-c3cnn(C(F)(F)F)c3)cn2)N1c1ccc2[nH]cnc2c1` (single isomer, unassigned) [Compound 46A] had a pIC50 of 6.00 to 7.60. For the compound `C[C@H]1C(=O)N(c2ccc3[nH]cnc3c2)[C@H]1c1c(F)cc(OCCC(F)F)cc1F` (single isomer, unassigned) [Compound 7B], the pIC50 is over 8.70. With `O=C1[C@H](C2CC2)[C@H](c2c(F)cc(-n3ccc(C(F)(F)F)n3)cc2F)N1c1ccc2[nH]cnc2c1` (single isomer, unassigned) [Compound 48B] the figure was over 8.70. Turning to `C[C@H]1C(=O)N(c2ccc3[nH]cnc3c2)[C@H]1c1c(F)cc(-c2cnn(C(F)F)c2)cc1F` (single isomer, unassigned) [Compound 17B], the pIC50 was over 8.70. The figure for `O=C1[C@H](C2CC2)[C@H](c2c(F)cc(-n3cnc(C(F)(F)F)c3)cc2F)N1c1ccc2[nH]cnc2c1` (single isomer, unassigned) [Compound 61B] is over 8.70; for `CN1CCN(c2cc(F)c(C3CC(=O)N3c3ccc4[nH]cnc4c3)c(F)c2)CC1` (racemic) [Compound 4, 1-(1H-benzo[d]imidazol-5-yl)-4-(2,6-difluoro-4-(4-methylpiperazin-1-yl)phenyl)azetidin-2-one] it is 7.60 to 8.70. With `O=C1[C@@H](C2CC2)[C@@H](c2ccc(-c3cnn(C(F)(F)F)c3)cc2C(F)(F)F)N1c1ccc2[nH]cnc2c1` (single isomer, unassigned) [Compound 76A] the figure was over 8.70.

Consider `Cc1cc(-n2cnc(C(F)(F)F)c2)ncc1[C@@H]1[C@H](C2CC2)C(=O)N1c1ccc2[nH]cnc2c1` (single isomer, unassigned) [Compound 73A], for which the pIC50 was 6.00 to 7.60. With `O=C1[C@H](C2CC2)[C@H](c2c(F)cc(-c3cnn(C(F)(F)F)c3)cc2F)N1c1ccc2[nH]cnc2c1` (single isomer, unassigned) [Compound 35B] the figure was over 8.70; with `CC1C(=O)N(c2ccc3[nH]cnc3c2)C1c1c(F)cc(OCCC(F)F)cc1F` (racemic) [Compound 7, 1-(1H-benzo[d]imidazol-5-yl)-4-(4-(3,3-difluoropropoxy)-2,6-difluorophenyl)-3-methylazetidin-2-one], 7.60 to 8.70; with `O=C1[C@@H](C2COC2)[C@@H](c2c(F)cc(-c3cnn(C(F)(F)F)c3)cc2F)N1c1ccc2[nH]cnc2c1` (single isomer, unassigned) [Compound 42A], 6.00 to 7.60. `O=C1[C@H](O)[C@H](c2c(F)cc(-c3cnn(C(F)F)c3)cc2F)N1c1ccc2[nH]cnc2c1` (racemic) [Compound 25CR] had a pIC50 of over 8.70. With `C[C@H]1C(=O)N(c2ccc3[nH]cnc3c2)[C@H]1c1c(F)cc(OCC(C)(C)O)cc1F` (single isomer, unassigned) [Compound 32B] the figure was over 8.70; with `O=C1[C@H](C2COC2)[C@H](c2c(F)cc(-c3cnn(C(F)(F)F)c3)cc2F)N1c1ccc2[nH]cnc2c1` (single isomer, unassigned) [Compound 42B], over 8.70.
